Assay results published in patent publication US20230151049A1, “Compounds Useful in HIV Therapy” (priority 2020, published 2023).
Like-named read-outs stand apart in the source and are kept apart here.

Assay: in vivo
Details: for concentration at 1 day / concentration at 7 day / concentration at 14 day / concentration at 21 day / concentration at 28 day / concentration at 35 day / concentration at 42 day / concentration at 49 day / concentration at 56 day / concentration at 63 day / concentration at 70 day / concentration at 77 day / concentration at 84 day: male, Wistar Han, rat, in vivo
Text: General Protocol for Prodrugs Rat PK Studies Conducted at ChemPartner, China
A total of three naïve male Wistar Han rats, 200-250 g, were received from Beijing VR Laboratory Animal Co. LTD. Following an acclimation period, the animals were assigned to the study based on acceptable health as determined by a staff veterinarian and catheter patency. Fasting of the animals before or after dosing was not required.
On Day 1, each animal received a single intramuscular injection of prepared test article at a target dose level of 20 mg/kg equivalent of EFdA and at a dose volume of 2 mL/kg. The injection sites were at gastrocnemius and identified with an indelible marker for daily monitoring during the study. The animals were manually restrained for dosing and were not sedated. The dose suspension was mixed well by inversion before each dose to ensure homogeneity. […] In addition, all animals are monitored twice daily by the veterinary staff for clinical abnormalities.
Blood samples were collected from the study animals as detailed in the sample collection Table 6 below
Each blood sample for PK (200 μL) was collected from tail vein. The blood was transferred to a tube containing NaF/Na2EDTA anticoagulant and inverted several times to mix. Draw 150 μL whole blood from the tube, add 150 uL 100 mM ammonium acetate, pH 4 buffer and mix well. The resulting blood samples were transferred to individual polypropylene tubes and immediately placed on dry ice until storage at nominally −80° C. prior to LC-MS/MS analysis.

[1] = day 21, single IM Example 16A 20 mg/kg equivalent of EFdA
[2] = day 28, single IM Example 16A 20 mg/kg equivalent of EFdA

C#C[C@]1(COP(=O)(N[C@@H](Cc2ccccc2)C(=O)OCCCCCCCCCCCCCCCCCCCC)Oc2ccccc2)O[C@@H](n2cnc3c(N)nc(F)nc32)C[C@@H]1O (single isomer, unassigned) [Example 43A]
Mean concentration of EFdA (day 1, single IM Example 43A 60 mg/kg): BQL (BQL = below quantification limit, 0.3 ng/mL for both) | Mean concentration of EFdA (day 7, single IM Example 43A 60 mg/kg): BQL (BQL = below quantification limit, 0.3 ng/mL for both) | Mean concentration of EFdA (day 14, single IM Example 43A 60 mg/kg): BQL (BQL = below quantification limit, 0.3 ng/mL for both) | Mean concentration of EFdA (day 21, single IM Example 43A 60 mg/kg): BQL (BQL = below quantification limit, 0.3 ng/mL for both) | Mean concentration of EFdA (day 28, single IM Example 43A 60 mg/kg): BQL (BQL = below quantification limit, 0.3 ng/mL for both) | Mean concentration of EFdA (day 35, single IM Example 43A 60 mg/kg): BQL (BQL = below quantification limit, 0.3 ng/mL for both) | Mean concentration of EFdA (day 42, single IM Example 43A 60 mg/kg): BQL (BQL = below quantification limit, 0.3 ng/mL for both) | Mean concentration of EFdA (day 49, single IM Example 43A 60 mg/kg): BQL (BQL = below quantification limit, 0.3 ng/mL for both) | Mean concentration of EFdA (day 56, single IM Example 43A 60 mg/kg): BQL (BQL = below quantification limit, 0.3 ng/mL for both) | Mean concentration of EFdA (day 63, single IM Example 43A 60 mg/kg): BQL (BQL = below quantification limit, 0.3 ng/mL for both) | Mean concentration of EFdA (day 70, single IM Example 43A 60 mg/kg): BQL (BQL = below quantification limit, 0.3 ng/mL for both) | Mean concentration of EFdA (day 77, single IM Example 43A 60 mg/kg): BQL (BQL = below quantification limit, 0.3 ng/mL for both) | Mean concentration of EFdA (day 84, single IM Example 43A 60 mg/kg): BQL (BQL = below quantification limit, 0.3 ng/mL for both) | concentration at 1 day (day 1, single IM Example 43A 60 mg/kg, read-out: Mean concentration of Example 43A): 89.3 ng/mL | concentration at 7 day (day 7, single IM Example 43A 60 mg/kg, read-out: Mean concentration of Example 43A): 25.4 ng/mL | concentration at 14 day (day 14, single IM Example 43A 60 mg/kg, read-out: Mean concentration of Example 43A): 22.7 ng/mL | concentration at 21 day (day 21, single IM Example 43A 60 mg/kg, read-out: Mean concentration of Example 43A): 22.1 ng/mL | concentration at 28 day (day 28, single IM Example 43A 60 mg/kg, read-out: Mean concentration of Example 43A): 11.3 ng/mL | concentration at 35 day (day 35, single IM Example 43A 60 mg/kg, read-out: Mean concentration of Example 43A): 12.7 ng/mL | concentration at 42 day (day 42, single IM Example 43A 60 mg/kg, read-out: Mean concentration of Example 43A): 10.4 ng/mL | concentration at 49 day (day 49, single IM Example 43A 60 mg/kg, read-out: Mean concentration of Example 43A): 7.22 ng/mL | concentration at 56 day (day 56, single IM Example 43A 60 mg/kg, read-out: Mean concentration of Example 43A): 8.67 ng/mL | concentration at 63 day (day 63, single IM Example 43A 60 mg/kg, read-out: Mean concentration of Example 43A): 12.5 ng/mL | concentration at 70 day (day 70, single IM Example 43A 60 mg/kg, read-out: Mean concentration of Example 43A): 13.1 ng/mL | concentration at 77 day (day 77, single IM Example 43A 60 mg/kg, read-out: Mean concentration of Example 43A): 13.5 ng/mL | concentration at 84 day (day 84, single IM Example 43A 60 mg/kg, read-out: Mean concentration of Example 43A): 7.94 ng/mL

C#C[C@]1(COP(=O)(N[C@@H](Cc2ccccc2)C(=O)OC(CCCCCCCCCCC)CCCCCCCCCCC)Oc2ccccc2)O[C@@H](n2cnc3c(N)nc(F)nc32)C[C@@H]1O (single isomer, unassigned) [Example 26A]
Mean concentration of EFdA (day 1, single IM Example 26A 63 mg/kg): BQL (BQL = below quantification limit, 0.3 ng/ml for both) | Mean concentration of EFdA (day 7, single IM Example 26A 63 mg/kg): BQL (BQL = below quantification limit, 0.3 ng/ml for both) | Mean concentration of EFdA (day 14, single IM Example 26A 63 mg/kg): BQL (BQL = below quantification limit, 0.3 ng/ml for both) | Mean concentration of EFdA (day 21, single IM Example 26A 63 mg/kg): BQL (BQL = below quantification limit, 0.3 ng/ml for both) | Mean concentration of EFdA (day 28, single IM Example 26A 63 mg/kg): BQL (BQL = below quantification limit, 0.3 ng/ml for both) | Mean concentration of EFdA (day 35, single IM Example 26A 63 mg/kg): BQL (BQL = below quantification limit, 0.3 ng/ml for both) | Mean concentration of EFdA (day 42, single IM Example 26A 63 mg/kg): BQL (BQL = below quantification limit, 0.3 ng/ml for both) | Mean concentration of EFdA (day 49, single IM Example 26A 63 mg/kg): BQL (BQL = below quantification limit, 0.3 ng/ml for both) | Mean concentration of EFdA (day 56, single IM Example 26A 63 mg/kg): BQL (BQL = below quantification limit, 0.3 ng/ml for both) | Mean concentration of EFdA (day 63, single IM Example 26A 63 mg/kg): BQL (BQL = below quantification limit, 0.3 ng/ml for both) | Mean concentration of EFdA (day 70, single IM Example 26A 63 mg/kg): BQL (BQL = below quantification limit, 0.3 ng/ml for both) | Mean concentration of EFdA (day 77, single IM Example 26A 63 mg/kg): BQL (BQL = below quantification limit, 0.3 ng/ml for both) | Mean concentration of EFdA (day 84, single IM Example 26A 63 mg/kg): BQL (BQL = below quantification limit, 0.3 ng/ml for both) | concentration at 1 day (day 1, single IM 63 mg/kg, read-out: Mean concentration of Example 26A): 72.7 ng/mL | concentration at 7 day (day 7, single IM 63 mg/kg, read-out: Mean concentration of Example 26A): 37.6 ng/mL | concentration at 14 day (day 14, single IM 63 mg/kg, read-out: Mean concentration of Example 26A): 33.8 ng/mL | concentration at 21 day (day 21, single IM 63 mg/kg, read-out: Mean concentration of Example 26A): 22.9 ng/mL | concentration at 28 day (day 28, single IM 63 mg/kg, read-out: Mean concentration of Example 26A): 18.5 ng/mL | concentration at 35 day (day 35, single IM 63 mg/kg, read-out: Mean concentration of Example 26A): 14.4 ng/mL | concentration at 42 day (day 42, single IM 63 mg/kg, read-out: Mean concentration of Example 26A): 11.1 ng/mL | concentration at 49 day (day 49, single IM 63 mg/kg, read-out: Mean concentration of Example 26A): 9.62 ng/mL | concentration at 56 day (day 56, single IM 63 mg/kg, read-out: Mean concentration of Example 26A): 9.8 ng/mL | concentration at 63 day (day 63, single IM 63 mg/kg, read-out: Mean concentration of Example 26A): 11.5 ng/mL | concentration at 70 day (day 70, single IM 63 mg/kg, read-out: Mean concentration of Example 26A): 9.95 ng/mL | concentration at 77 day (day 77, single IM 63 mg/kg, read-out: Mean concentration of Example 26A): 9.69 ng/mL | concentration at 84 day (day 84, single IM 63 mg/kg, read-out: Mean concentration of Example 26A): 7.43 ng/mL

C#C[C@]1(COP(=O)(N[C@@H](C)C(=O)OCCCCCCCCCCCCCCCCCCCCCC)Oc2ccccc2)O[C@@H](n2cnc3c(N)nc(F)nc32)C[C@@H]1O (single isomer, unassigned) [Example 16A]
Mean concentration of EFdA (day 1, single IM Example 16A 20 mg/kg equivalent of EFdA): BQL (BQL = below quantification limit, 0.3 ng/mL for both) | Mean concentration of Example 16A (day 14, single IM Example 16A 20 mg/kg equivalent of EFdA): BQL (BQL = below quantification limit, 0.3 ng/mL for both) | Mean concentration of EFdA [1]: BQL (BQL = below quantification limit, 0.3 ng/mL for both) | Mean concentration of Example 16A [1]: BQL (BQL = below quantification limit, 0.3 ng/mL for both) | Mean concentration of EFdA [2]: BQL (BQL = below quantification limit, 0.3 ng/mL for both) | Mean concentration of Example 16A [2]: BQL (BQL = below quantification limit, 0.3 ng/mL for both) | concentration at 1 day (day 1, single IM Example 16A 20 mg/kg equivalent of EFdA, read-out: Mean concentration of Example 16A): 3.05 ng/mL | concentration at 7 day (day 7, single IM Example 16A 20 mg/kg equivalent of EFdA, read-out: Mean concentration of Example 16A): 1.03 ng/mL
